Source: PubChem BioAssay AID2305 (GlaxoSmithKline (GSK), 2010)

System: P. falciparum 3D7 growth, pLDH absorbance
Test: blood-stage malaria parasite growth potency – strain 3D7, dose response (AID 2305)

Question: How did the IC50 turn out when `CCC(CC)OC(=O)C(C)c1cccc(C(=O)c2ccccc2)c1` (stereo not drawn) was run?
Answer: Its IC50 is 830 nM.

Question: With `COc1ccccc1N1CCN(C(C(=O)NCc2ccc3c(c2)OCO3)c2ccc3c(c2)OCCCO3)CC1` (stereo not drawn) as the compound, how does the IC50 read?
Answer: Its IC50 is 1120 nM.

Question: For `COc1ccc(CC(C)NCC(O)c2cccc(C(F)(F)F)c2)cc1` (stereo not drawn), which IC50 is on record?
Answer: The IC50 was 1580 nM.

Question: Which IC50 does the source give for `CCOc1cc2c(cc1OCC)C(c1cc(OC)c(O)cc1Cl)NCC2` (stereo not drawn) here?
Answer: Its IC50 is 750 nM.

Question: With `CC(C)Cc1cn(-c2nc(C(=N)N)cs2)c2cc(Cl)ccc12` as the compound, how does the IC50 read?
Answer: Its IC50 is 150 nM.

Question: How did the IC50 turn out when `CN(C)CCNCc1cccc(-c2ccc3c(Nc4ccc(Oc5ccccc5)cc4)ccnc3c2)c1` was run?
Answer: The IC50 was 440 nM.

Question: Which IC50 does the source give for `COc1ccc(OC)c2c1CCN(C)C2Cc1cccc2ccccc12` (stereo not drawn) here?
Answer: The IC50 was 1050 nM.

Question: How did the IC50 turn out when `COC(=O)c1ccc(C2OC3(C(=O)c4ccccc4C3=O)C(OC)=C2Cl)cc1C(C)=O` (stereo not drawn) was run?
Answer: Its IC50 is 550 nM.

Question: Which IC50 does the source give for `O=C(NCC1CCC(CNCCCc2ccccc2)CC1)c1cc(Cl)cc(Cl)c1` (stereo not drawn) here?
Answer: The IC50 was 850 nM.

Question: For `Cc1[nH]c(C)c(C(F)(F)F)c(=O)c1-c1ccc(Oc2ccc(OC(F)(F)F)cc2)cc1`, which IC50 is on record?
Answer: The IC50 was 170 nM.

Question: With `N#Cc1ccc2c(c1)CN(CCC1CCC(NC(=O)c3cc4cc(OC(F)(F)F)ccc4[nH]3)CC1)CC2` (stereo not drawn) as the compound, how does the IC50 read?
Answer: The IC50 was 780 nM.

Question: `FC(F)(F)c1ccc(NC(=S)N2CCC(CN3CCC(c4c[nH]c5ccccc45)CC3)CC2)cc1` was tested. Which IC50 did it give?
Answer: The IC50 was 660 nM.

Question: With `C=CCc1cc(Cc2cnc(N)nc2N)cc(CCC)c1O` as the compound, how does the IC50 read?
Answer: The IC50 was 990 nM.

Question: How did the IC50 turn out when `Cc1[nH]c2c(c(=O)c1Cl)-c1ccc(Oc3cccc(C(F)(F)F)c3)cc1C2=O` was run?
Answer: The IC50 was 40 nM.

Question: For `Cc1cccc2[nH]c(-c3ccc(-c4cccc(NC(=O)Nc5ccccc5)c4)cc3)nc12`, which IC50 is on record?
Answer: The IC50 was 720 nM.

Question: For `N#Cc1ccc2nc(-c3cc(-c4cccc(F)c4)cnc3N)[nH]c2c1`, which IC50 is on record?
Answer: Its IC50 is 190 nM.

Question: For `COc1ccc(C2N=C(N)N=C(N)N2OCc2ccccc2)cc1OC` (stereo not drawn), which IC50 is on record?
Answer: The IC50 was 130 nM.

Question: With `CC(C)c1cccc(C(C)C)c1NC(=O)NNC(=O)c1ccc(CCN2CCC(c3nc(COCC(F)(F)F)c(-c4ccc(F)cc4)o3)CC2)cc1` as the compound, how does the IC50 read?
Answer: Its IC50 is 1090 nM.

Question: How did the IC50 turn out when `COc1ccccc1CCNc1nc(C)cc(N[C@@H](Cc2ccccc2)C(=O)NCCOc2ccccc2)n1` was run?
Answer: The IC50 was 1210 nM.

Question: For `O=C(N[C@@H](CC1CCCCC1)C(=O)NCc1cccc(C(F)(F)F)c1)c1ccc(O)c(-c2ccc(Cl)c(Cl)c2)c1`, which IC50 is on record?
Answer: Its IC50 is 220 nM.

Question: Which IC50 does the source give for `COc1cc(F)c2ncc(Cl)c(C(O)CN3CCC(NC(=O)c4ccc5c(n4)NC(=O)CO5)CC3)c2c1` (stereo not drawn) here?
Answer: Its IC50 is 750 nM.

Question: Which IC50 does the source give for `COc1cc(Cc2cnc(N)nc2N)cc(OCCCC(=O)O)c1OC` here?
Answer: The IC50 was 1180 nM.

Question: For `Cc1cc(=O)oc2c1ccc1oc(C(O)c3ccc(Cl)cc3)c(C)c12` (stereo not drawn), which IC50 is on record?
Answer: Its IC50 is 130 nM.

Question: `COc1cccc(CN2CCC(N3CCc4cc(NC(=O)c5cc(C)on5)ccc43)C2)c1OC` (stereo not drawn) was tested. Which IC50 did it give?
Answer: Its IC50 is 950 nM.

Question: Which IC50 does the source give for `Oc1ccccc1N1CCN(c2ccc(-c3nc4ccccc4[nH]3)cn2)CC1` here?
Answer: The IC50 was 1130 nM.

Question: With `CN(CCN1CCC(c2c[nH]c3ccccc23)CC1)C(=O)OCCCCCNC(=O)/C=C/c1ccc(Cl)c(Cl)c1` as the compound, how does the IC50 read?
Answer: The IC50 was 680 nM.

Question: For `COc1ccccc1N1CCN(Cc2c(NC(C)=O)sc(C)c2C)CC1`, which IC50 is on record?
Answer: Its IC50 is 430 nM.

Question: With `O=C(Nc1cccc(C(F)(F)F)c1)c1ccc(S(=O)(=O)NC2CCN(CC3CCCCC3)C2)cc1` (stereo not drawn) as the compound, how does the IC50 read?
Answer: Its IC50 is 790 nM.

Question: With `N=C(N)CCN(Cc1ccc(Cl)cc1)c1ccc(Cl)cc1` as the compound, how does the IC50 read?
Answer: Its IC50 is 1060 nM.

Question: How did the IC50 turn out when `COc1cc(Nc2ncnc3cc(OC)c(OC)cc23)cc([N+](=O)[O-])c1` was run?
Answer: The IC50 was 810 nM.

Question: For `CN1CCCN(Cc2cccc(-c3cccc(NS(=O)(=O)c4cccc5cccnc45)c3)c2)CC1`, which IC50 is on record?
Answer: The IC50 was 760 nM.

Question: For `CCC[C@@H]([C@@H](CC1CCCCC1)C(=O)N[C@H](C(=O)Nc1nccs1)C(C)(C)SCCOCCOCC)N(O)C=O`, which IC50 is on record?
Answer: The IC50 was 80 nM.

Question: `Cc1cccc2[nH]c(-c3ccc(-c4ccc(NC(=O)Nc5ccc(Cl)c(Cl)c5)cc4)cc3)nc12` was tested. Which IC50 did it give?
Answer: Its IC50 is 830 nM.

Question: With `COc1ccc2nccc([C@@H](O)CN3CCC(NCc4ccc5c(c4)NC(=O)C(C)S5)CC3)c2c1` (stereo partly drawn) as the compound, how does the IC50 read?
Answer: Its IC50 is 200 nM.

Question: Which IC50 does the source give for `CC(C)NCc1ccc(-c2ccc(-c3nc4ccc(C(F)(F)F)cc4[nH]3)cc2)cc1` here?
Answer: Its IC50 is 270 nM.

Question: How did the IC50 turn out when `COc1cc2cc(-c3nc4ccccc4[nH]3)c(N)nc2cc1OC` was run?
Answer: Its IC50 is 170 nM.

Question: With `CCCCCN1CCCC(NS(=O)(=O)c2ccc(C(=O)Nc3ccc(C(F)(F)F)cc3)cc2)C1` (stereo not drawn) as the compound, how does the IC50 read?
Answer: Its IC50 is 1630 nM.

Question: With `CCCCCC(C)(C)NC[C@@H](O)[C@H](Cc1ccccc1)NC(=O)c1cc(NCC)cc(N2CCCC2=O)c1` as the compound, how does the IC50 read?
Answer: Its IC50 is 670 nM.

Question: Which IC50 does the source give for `Cc1nc(C)c(CC(=O)Nc2cccc(-c3cccc(-c4nc5ccc(C(F)(F)F)cc5[nH]4)c3)c2)s1` here?
Answer: Its IC50 is 830 nM.

Question: For `CCCCCN1CCCC(CNS(=O)(=O)c2ccc(C(=O)Nc3ccc(C(F)(F)F)cc3)cc2)C1` (stereo not drawn), which IC50 is on record?
Answer: The IC50 was 920 nM.

Question: With `CC[C@H](C)CNC(=O)c1cncc(-c2cccc(CNC3Cc4ccccc4C3)c2)c1` as the compound, how does the IC50 read?
Answer: Its IC50 is 590 nM.

Question: Which IC50 does the source give for `N/C(=N/C(=NCCCCCCN=C(/N=C(/N)Nc1ccc(Cl)cc1)N1CCCCC1)N1CCCCC1)Nc1ccc(Cl)cc1` here?
Answer: The IC50 was 260 nM.

Question: With `Cc1cccc2[nH]c(-c3ccc(-c4cccc(CN5CC(C)OC(C)C5)c4)s3)nc12` (stereo not drawn) as the compound, how does the IC50 read?
Answer: The IC50 was 760 nM.

Question: For `O=C(Nc1ccc(Cl)cc1)NC1CCN(CCCCCNC(=O)[C@@H]2C[C@H]2c2ccc(Cl)c(Cl)c2)CC1`, which IC50 is on record?
Answer: The IC50 was 580 nM.

Question: For `CN1CCCN(Cc2cccc(-c3cccc(NC(=O)c4ccc(Cl)cc4)c3)c2)CC1`, which IC50 is on record?
Answer: Its IC50 is 920 nM.

Question: With `CN(C)Cc1cc(Nc2ccnc3cc(Cl)ccc23)ccc1O` as the compound, how does the IC50 read?
Answer: The IC50 was 10 nM.

Question: With `C[C@H]1CN(Cc2cccc(-c3cc(CNC(=O)c4cccc(C(=O)c5ccc(Cl)c(Cl)c5)c4)ccc3F)c2)CCN1` as the compound, how does the IC50 read?
Answer: Its IC50 is 1140 nM.

Question: `Cc1ccc(-c2nnc3c4ccccc4c(C)nn23)cc1S(=O)(=O)N1CCN(CCO)CC1` was tested. Which IC50 did it give?
Answer: Its IC50 is 670 nM.
